Results from US4803209A, “Substituted 2,3-diphenyl-1,2-dihydroquinoxalines” (International Minerals & Chemical Corp., priority 1987, dated 1989).
Like-named read-outs stand apart in the source and are kept apart here.

Experiments:
[1] = system: Eimeria tenella Eli Lilly Strain 65 (Lilly 65); assay: In vitro anticoccidial test in chick kidney cell monolayers; assay type: cell-based; conditions: 72 h, 3 days, read-out: % Inhibition of Coccidia
kidney cell monolayer = assay: Toxicity to cultured kidney cell monolayer in the in vitro anticoccidial test; assay type: cell-based, chick; set-up: key: T: toxic (inhibited kidney cell monolayer formation); conditions: 3 days
Method: For in vitro screen tests, Hubbard X Hubbard chicks were maintained on drug-free starter diets in brooders in a coccidia-free room. Water was available ad libitum. At 2-3 weeks of age, 3-6 chicks were sacrificed by decapitation and bled. All tissue culture preparation, propagation and test steps were carried out using strict aseptic techniques. Kidney cells next were combined in a single sterile tube and evenly dispersed by agitation. An appropriate dilution (usually 1/10X to 1/25X) was counted microscopically in a hemocytometer and the cell suspension diluted in 500 ml sterile bottles to 200,000 to 250,000 cells/ml of growth medium. Multiwell tissue culture plates (Falcon No. 3008 or Costar No. 3524) were employed in all in vitro screen tests. Immediately after preparation of the kidney cell suspension, each of the 24 wells of 20 to 60 multiwell plates was inoculated with 1 ml of cells using a sterile syringe-type continuous pipettor (Cornwall). Plates then were incubated at once in a 5% CO2 incubator at 39° C. and ≥80% humidity. At about 24 hours one plate was removed and briefly examined for monolayer initiation under phase microscopy at 200X. At 40-48 hours monolayer growth was well initiated and satisfactory for initiation of drug tests. At this time attached cells were spreading and putting out arm-like projections in many areas of each well. The medium on plates which would not be used for drug tests at this time was replaced with prewarmed EBSS plus antibiotics, and these plates were returned to the incubator until time of use 24 to 48 hours later. The latter step was incorporated to remove debris and toxins from the young cell monolayers and also delay monolayer growth until initiation of drug tests. For each test compound an estimated 10 mg of test compound was placed in a 15×150 mm disposable screw-cap test tube (Belco No. 2009-16150). In a typical test employing 25 multiwell plates, tubes containing test compounds were set up and four drops of dimethylsulfoxide (DMSO) were added to each tube. Next 10 ml sterile distilled water was added to each tube and the tubes were capped tightly and mixed by agitation. Primary compound solutions containing about 1000 ppm test compound were serially diluted in disposable tubes (Falcon No. 2051) containing 1/2 strength growth medium, to yield the concentrations shown in Table 3 below. Sterile 1 cc disposable syringes (Tomac) were employed both for making dilutions and adding test compounds to plates. In setting up drug tests, five multiwell plates containing 48-96 hr monolayers were removed as a group from the incubator. The medium was quickly poured off one multiwell plate and 0.5 ml of the lowest dilution of test compound was added to each of two wells in the first column of wells, and an equal volume of a higher dilution of the same substance was added to the remaining two wells in the same column. This procedure was repeated with the next test substance using the wells in the second column on the plate. Dilutions of the remaining test substances were placed in corresponding columns of the plate. After compounds had been added to the first set of five plates, 0.5 ml of a 2×10^5 /ml suspension of sporozoites was added to each well of each plate using a sterile continuous pipettor. To minimize the effects of exposing growth medium to the atmosphere, all additions were made rapidly and inoculated plates were immediately returned to the incubator. Three days after drug and sporozoite addition, plates were removed a few at a time from the incubator for enumeration of parasites. […] The medium was quickly discarded and counts made under phase microscopy at 200X of the total numbers of schizonts and […] per field in each of five random fields. The average number of parasites per field was then calculated. The results of the in vitro anticoccidial tests, which are given in Table 3 below, show the compounds to have toxic effects upon cultured cells.

anaerobic bacteria = assay type: cell-based
Salmonella typhimurium = assay type: cell-based
[2] = system: E. coli strain 046 (E.C. 046); assay type: cell-based
[3] = system: Streptococcus sp. 1 X A7 (Strep A7); assay type: cell-based
[4] = system: Bacteroides fragilis (Bf); assay: Antimicrobial growth inhibition, Bf; assay type: cell-based; conditions: Anaerobic, 6 h, 37° C.
[5] = system: Streptococcus sp. 1 X C15 (Strep C15); assay type: cell-based
[6] = system: antibiotic resistant E. coli (E.C. 324); assay type: cell-based; conditions: Gram Neg., 6 h, 37° C., aerobic
[7] = Growth promotion and feed utilization in chicks; assay type: in vivo, chicks (broiler cockerels)
[8] = system: Clostridium perfringens (Cp); assay type: cell-based; conditions: Anaerobic, 6 h, 37° C.
[9] = experiment set 5, 75 ppm in feed, 8 weeks

SMILES	inhibition at 0.001 ppm [1] [%]	inhibition at 0.01 ppm [1] [%]	inhibition at 0.1 ppm [1] [%]	inhibition at 1 ppm [1] [%]	% Inhibition of Coccidia: T = toxic (kidney cell monolayer; 100 ppm)	% Inhibition of Coccidia: T = toxic (kidney cell monolayer; 10.0 ppm)	further results
Oc1ccc(Cl)cc1C1=Nc2ccccc2NC1c1cc(Cl)ccc1O (stereo not drawn) [Example 5, 2,3-di(2-hydroxy-5-chlorophenyl)-1,2-dihydroquinoxaline]	1	0	6	31	T		inhibition at 10 ppm ([1]; 10.0 ppm): 100%
Oc1ccccc1C1=Nc2cc(Cl)c(Cl)cc2NC1c1ccccc1O (stereo not drawn) [Example 2, 2,3-di(2-hydroxyphenyl)-6,7-dichloro-1,2-dihydroquinoxaline]	42	71	89	100	T	T	
Oc1ccc(Cl)cc1C1=Nc2cc(Cl)c(Cl)cc2NC1c1cc(Cl)ccc1O (stereo not drawn) [Example 1, 2,3-Di(2-hydroxy-5-chlorophenyl)-6-7-dichloro-1,2-dihydroquinoxaline]	53	67	61	98	T	T	activity against anaerobic bacteria (anaerobic bacteria): possessed activity against both anaerobic microorganisms; Growth of S.T. in the presence of the test compound (Salmonella typhimurium; 6.4 ppm): +; Growth of S.T. in the presence of the test compound (Salmonella typhimurium; 64 ppm): +; Growth of E.C. 046 in the presence of the test compound ([2]; 6.4 ppm): +; Growth of E.C. 046 in the presence of the test compound ([2]; 64 ppm): +; Growth of Strep A7 in the presence of the test compound ([3]; 6.4 ppm): +; Growth of Strep A7 in the presence of the test compound ([3]; 64 ppm): +; Growth of Bf in the presence of the test compound ([4]; 6.4 ppm): -; Growth of Bf in the presence of the test compound ([4]; 64 ppm): -; Growth of Strep C15 in the presence of the test compound ([5]; 6.4 ppm): +; Growth of Strep C15 in the presence of the test compound ([5]; 64 ppm): +; Growth of E.C. 324 in the presence of the test compound ([6]; 6.4 ppm): +; Growth of E.C. 324 in the presence of the test compound ([6]; 64 ppm): +; feed efficiency (% better or worse than control) [7, 9]: 13%; weight gain (% better or worse than control) [7, 9]: 6%; growth promotion / feed efficiency ([7]; in vivo): found to improve both weight gain and feed efficiency; Growth of Cp in the presence of the test compound ([8]; 6.4 ppm): -; Growth of Cp in the presence of the test compound ([8]; 64 ppm): -
COc1ccc(C2=Nc3cc(C)c(C)cc3NC2c2ccc(OC)cc2O)c(O)c1 (stereo not drawn) [Example 8, 2,3-di(2-hydroxy-4-methoxyphenyl)-6,7-dimethyl-1,2-dihydroquinoxaline]	0	9	12	99	T	T	
